Tests used:
Format in all cases: cell-based, human
normal skin fibroblasts [1] = experiment: Elastin immunostaining in 7-day cultures of normal skin fibroblasts; conditions: for deposition of elastin (anti-elastin immunostaining): 50 ng/ml IGF-I, 50 nM aldosterone, alone or together, vs untreated control
Description: (§1) Biological effects of aldosterone and spironolactone were tested in cultures of dermal fibroblasts derived from normal skin, stretch-marked skin and dermal scars derived from Caucasian females, of different ages ranging from 30-38 years old. All fibroblasts were originally isolated by allowing them to migrate out of skin explants and then passaged by trypsinization and maintained in alpha-minimum essential medium supplemented with 20 mM Hepes, 1% antibiotics and antimycotics, 1% L-Glutamate and 2% fetal bovine serum (FBS) as previously described Hinek et al. “Impaired elastic-fiber assembly by fibroblasts from patients with either Morquio B disease or infantile GM1-gangliosidosis is linked to deficiency in the 67-kD spliced variant of beta-galactosidase.” Am J Hum Genet. 2000 July; 67(1):23-36 hereby incorporated by reference in its entirety. In all experiments, consecutive passages 3-4 were tested. Cells were densely plated (50×10^5 cells/dish) to reach confluency and then cultured for 7 days in the presence and absence of different concentrations of (10 nM-1 μM) aldosterone, 2 μM spironolactone, alone or in combinations with other reagents, as described in figure legends.
7-day-old cultures of fibroblasts, which produce abundant ECM, were assessed. All cultures were fixed in cold 100% methanol at −20° C. for 30 min, and then incubated for 1 hour with 2 μg/ml of polyclonal antibody to tropoelastin. Cultures were then incubated for an additional hour with appropriate fluorescein-conjugated secondary antibody (GAR-FITC). Nuclei were counterstained with propidium iodide. Morphometric analysis of five separate cultures in each experimental group, immunostained with antibodies recognizing extracellular matrix components, was performed using a computerized video analysis system (Image-Pro Plus software 3.0, Media Cybernetics, Silver Spring, Md.) as described previously in Hinek et al. “Decreased elastin deposition and high proliferation of fibroblasts from Costello syndrome are related to functional deficiency in the 67-kD elastin-binding protein.” Am J Hum Genet. 2000 March; 66(3):859-72 and Hinek and Wilson, “Impaired elastogenesis in Hurler disease: dermatan sulfate accumulation linked to deficiency in elastin-binding protein and elastic fiber assembly.” Am J Pathol. 2000 March; 156(3):925-38 both of which are hereby incorporated by reference in their entireties.

normal skin fibroblasts [2] = experiment: [3H]-valine incorporation into insoluble elastin, normal skin fibroblasts; conditions: for mature, insoluble elastin concentration ([3H]-valine incorporation): 50 ng/ml IGF-I, 50 nM aldosterone, alone or in combination
Description: as §1
Quintuplicate, 4 day-old cultures of dermal fibroblasts maintained in the presence and absence of indicated reagents were additionally exposed for the 3 following days to 20 μCi [^3H]-valine. At the end of incubation period, the cell layers were extensively washed with PBS, scraped and boiled in 500 μl of 0.1 N NaOH for 30 minutes, to solubilize all matrix components except elastin. The resulting pellets containing the insoluble elastin were then solubilized by boiling in 200 μl of 5.7 N HCl for 1 hour, and the aliquots were mixed in scintillation fluid and counted. Aliquots taken from each culture were also used for DNA determination, according to Rodems et al., using the DNeasy Tissue System from Qiagen. Final results reflecting amounts of metabolically labeled insoluble elastin in individual cultures were normalized per their DNA content, and expressed as CPM/1 μg DNA.

[3] = system: skin biopsy explants derived from abdominal dermal scar; experiment: Organ culture of dermal scar explants, Movat's pentachrome stain
Description: In order to further test whether aldosterone and spironolactone would penetrate into skin tissue and affect elastogenesis, fragments of normal skin, stretch-marked skin and dermal scars were tested in organ culture system. Skin fragments were cut into multiple 1 mm^2 pieces and placed on top of metal grids immersed in culture medium containing 5% FBS and maintained for 10 days in the presence and absence of and then cultured for 7 days in the presence of 50 nM aldosterone, and 2 μM spironolactone, alone or in combinations, as described in figure legends. The media were changed every second day.
All organ cultures were fixed in 1% buffered formalin and their transversal serial histological sections were stained with Movat's pentachrome as previously described in Hinek et al. “Proteolytic digest derived from bovine Ligamentum Nuchae stimulates deposition of new elastin-enriched matrix in cultures and transplants of human dermal fibroblasts” J Dermatol Sci. September 2005; 39(3):155-66 hereby incorporated by reference in it's entirety. Morphometric analysis was performed as described above. In each analyzed group (three explants from each patient) low-power fields (1 mm^2) of 20 serial sections stained with Movat's pentachrome were analyzed and all structures stained black (elastic fibers) were counted.

[4] = system: fibroblasts derived from dermal scar tissue; experiment: Elastin immunostaining in 7-day cultures of dermal scar fibroblasts
Description: as §1
7-day-old cultures of fibroblasts, which produce abundant ECM, were assessed. All cultures were fixed in cold 100% methanol at −20° C. for 30 min, and then incubated for 1 hour with 2 μg/ml of polyclonal antibody to tropoelastin. Cultures were then incubated for an additional hour with appropriate fluorescein-conjugated secondary antibody (GAR-FITC). Nuclei were counterstained with propidium iodide. Morphometric analysis of five separate cultures in each experimental group, immunostained with antibodies recognizing extracellular matrix components, was performed using a computerized video analysis system (Image-Pro Plus software 3.0, Media Cybernetics, Silver Spring, Md.) as described previously in Hinek et al. “Decreased elastin deposition and high proliferation of fibroblasts from Costello syndrome are related to functional deficiency in the 67-kD elastin-binding protein.” Am J Hum Genet. […]

[5] = system: skin biopsy explants derived from normal abdominal skin; experiment: Organ culture of normal skin explants, Movat's pentachrome stain; conditions: 10 days, 50 nM aldosterone alone or with 2 μM spironolactone
Description: (§2) In order to further test whether aldosterone and spironolactone would penetrate into skin tissue and affect elastogenesis, fragments of normal skin, stretch-marked skin and dermal scars were tested in organ culture system. Skin fragments were cut into multiple 1 mm^2 pieces and placed on top of metal grids immersed in culture medium containing 5% FBS and maintained for 10 days in the presence and absence of and then cultured for 7 days in the presence of 50 nM aldosterone, and 2 μM spironolactone, alone or in combinations, as described in figure legends. The media were changed every second day. All organ cultures were fixed in 1% buffered formalin and their transversal serial histological sections were stained with Movat's pentachrome as previously described in Hinek et al. “Proteolytic digest derived from bovine Ligamentum Nuchae stimulates deposition of new elastin-enriched matrix in cultures and transplants of human dermal fibroblasts” J Dermatol Sci. September 2005; 39(3):155-66 hereby incorporated by reference in it's entirety. Morphometric analysis was performed as described above. In each analyzed group (three explants from each patient) low-power fields (1 mm^2) of 20 serial sections stained with Movat's pentachrome were analyzed and all structures stained black (elastic fibers) were counted.

[6] = system: fibroblasts derived from patient with stretch marks; experiment: Elastin immunostaining in 7-day cultures of fibroblasts from a patient with stretch marks; conditions: 50 nM aldosterone alone or with 2 μM spironolactone; vs untreated control or spironolactone only
Description: Biological effects of aldosterone and spironolactone were tested in cultures of dermal fibroblasts derived from normal skin, stretch-marked skin and dermal scars derived from Caucasian females, of different ages ranging from 30-38 years old. All fibroblasts were originally isolated by allowing them to migrate out of skin explants and then passaged by trypsinization and maintained in alpha-minimum essential medium supplemented with 20 mM Hepes, 1% antibiotics and antimycotics, 1% L-Glutamate and 2% fetal bovine serum (FBS) as previously described Hinek et al. “Impaired elastic-fiber assembly by fibroblasts from patients with either Morquio B disease or infantile GM1-gangliosidosis is linked to deficiency in the 67-kD spliced variant of beta-galactosidase.” Am J Hum Genet. 2000 July; 67(1):23-36 hereby incorporated by reference in its entirety. In all experiments, consecutive passages 3-4 were tested. Cells were densely plated (50×10^5 cells/dish) to reach confluency and then cultured for 7 days in the presence and absence of different concentrations of (10 nM-1 μM) aldosterone, 2 μM spironolactone, alone or in combinations with other reagents, as described in figure legends. 7-day-old cultures of fibroblasts, which produce abundant ECM, were assessed. […]

[7] = system: skin biopsy explants from abdominal stretch marks; experiment: Organ culture of stretch-marked skin explants, Movat's pentachrome stain; conditions: 10 days, 50 nM aldosterone alone or with 2 μM spironolactone
Description: as §2

elastin mRNA = experiment: Elastin mRNA level by one-step RT-PCR in normal skin fibroblasts; conditions: 24 h; 50 nM and 1 μM aldosterone, alone or with 2 μM spironolactone
Description: (§3) Fibroblasts were cultured to confluency in medium with 2% FBS and then in serum-free medium for 24 hours. The medium was changed again and cells were incubated for the next 24 hours in the presence and absence of in the presence of 50 nM and 1 μM aldosterone, and 2 μM spironolactone, alone or in combinations, as described in figure legend. At the end of the incubation period total RNA was extracted using the RNeasy Mini Kit, according to manufacturer's instructions. Steady-state levels of elastin mRNA were then analyzed by One-Step RT-PCR analysis. Briefly, 1 μg of total RNA was added to each one step RT-PCR (Qiagen One-Step RT-PCR Kit), and reactions were set up according to manufacturer's instructions in a total volume of 25 μl. The reverse transcription step was performed for elastin, and GAPDH reactions at 50° C. for 30 minutes, followed by 15 minutes at 95° C. The elastin PCR reaction (sense primer: [NT] ID NO: 1), antisense primer: [NT] ID NO: 2); designed to produce a 255 bp product) was performed under the following conditions: 25 cycles at 94° C. denaturation for 20 s, 63° C. annealing for 20 s, 72° C. extension for 1 min; 1 cycle at 72° C. final extension for 10 min. The collagen Type I PCR reaction (sense [NT] ID NO: 3), antisense primer: [NT] […]

[8] = system: fibroblasts derived from patient with stretch marks; experiment: [3H]-valine incorporation into insoluble elastin, stretch-mark fibroblasts; conditions: 50 nM aldosterone alone or with 2 μM spironolactone
Description: Biological effects of aldosterone and spironolactone were tested in cultures of dermal fibroblasts derived from normal skin, stretch-marked skin and dermal scars derived from Caucasian females, of different ages ranging from 30-38 years old. All fibroblasts were originally isolated by allowing them to migrate out of skin explants and then passaged by trypsinization and maintained in alpha-minimum essential medium supplemented with 20 mM Hepes, 1% antibiotics and antimycotics, 1% L-Glutamate and 2% fetal bovine serum (FBS) as previously described Hinek et al. “Impaired elastic-fiber assembly by fibroblasts from patients with either Morquio B disease or infantile GM1-gangliosidosis is linked to deficiency in the 67-kD spliced variant of beta-galactosidase.” Am J Hum Genet. […] In all experiments, consecutive passages 3-4 were tested. […] The resulting pellets containing the insoluble elastin were then solubilized by boiling in 200 μl of 5.7 N HCl for 1 hour, and the aliquots were mixed in scintillation fluid and counted. […] Final results reflecting amounts of metabolically labeled insoluble elastin in individual cultures were normalized per their DNA content, and expressed as CPM/1 μg DNA.

collagen type I mRNA = experiment: Collagen type I mRNA level by one-step RT-PCR in normal skin fibroblasts; conditions: 24 h; 50 nM and 1 μM aldosterone, alone or with 2 μM spironolactone
Description: as §3

[9] = system: fibroblasts derived from dermal scar tissue; experiment: [3H]-valine incorporation into insoluble elastin, dermal scar fibroblasts
Description: Biological effects of aldosterone and spironolactone were tested in cultures of dermal fibroblasts derived from normal skin, stretch-marked skin and dermal scars derived from Caucasian females, of different ages ranging from 30-38 years old. All fibroblasts were originally isolated by allowing them to migrate out of skin explants and then passaged by trypsinization and maintained in alpha-minimum essential medium supplemented with 20 mM Hepes, 1% antibiotics and antimycotics, 1% L-Glutamate and 2% fetal bovine serum (FBS) as previously described Hinek et al. “Impaired elastic-fiber assembly by fibroblasts from patients with either Morquio B disease or infantile GM1-gangliosidosis is linked to deficiency in the 67-kD spliced variant of beta-galactosidase.” Am J Hum Genet. 2000 July; 67(1):23-36 hereby incorporated by reference in its entirety. […]
Quintuplicate, 4 day-old cultures of dermal fibroblasts maintained in the presence and absence of indicated reagents were additionally exposed for the 3 following days to 20 μCi [^3H]-valine. […] The resulting pellets containing the insoluble elastin were then solubilized by boiling in 200 μl of 5.7 N HCl for 1 hour, and the aliquots were mixed in scintillation fluid and counted. […] Final results reflecting amounts of metabolically labeled insoluble elastin in individual cultures were normalized per their DNA content, and expressed as CPM/1 μg DNA.

[10] = FIG. 11, 50 nM aldosterone alone or with 2 μM spironolactone, vs untreated control

Which “elastin deposition in cells treated with increasing concentrations of aldosterone” value (normal skin fibroblasts [1]; 2 μM spironolactone added to 10 nM, 50 nM, 1 μM aldosterone, 7-day cultures) does the source give for `CC(=O)S[C@@H]1CC2=CC(=O)CC[C@]2(C)[C@H]2CC[C@@]3(C)[C@@H](CC[C@@]34CCC(=O)O4)[C@H]12` [spironolactone] here?
Its value is “did not alter elastin deposition”.

Which “mature elastin concentration in the presence of IGF-I or aldosterone ([3H]-valine incorporation)” value (normal skin fibroblasts [2]; 1 μg/ml αIGF-IR or 5 μM AG1024 with 50 ng/ml IGF-I or 50 nM aldosterone) does the source give for `CC(C)(C)c1cc(C=C(C#N)C#N)cc(Br)c1O` [AG1024] here?
Its value is “maintained at or below control levels”.

And the “effect on aldosterone-enhanced deposition of elastin (immunostaining)” value (normal skin fibroblasts [1]; 50 nM aldosterone with 1 μg/ml αIGF-IR or 5 μM AG1024)?
Its value is “inhibited”.

What about the “effect on IGF-I-enhanced deposition of elastin (immunostaining)” value (normal skin fibroblasts [1]; 50 ng/ml IGF-I with 1 μg/ml αIGF-IR or 5 μM AG1024) of the same compound?
Its value is “inhibited”.

What about the “elastin deposition in AG1024-treated explants (Movat's pentachrome)” value ([3]; 5 μM AG1024 alone, with 50 nM aldosterone, or with aldosterone and 2 μM spironolactone) of the same compound?
The value was “no net increase in elastin deposition”.

Which results are given for `C[C@]12CCC(=O)C=C1CC[C@@H]1[C@@H]2[C@@H](O)C[C@]2(C=O)[C@@H](C(=O)CO)CC[C@@H]12` [aldosterone]?
mature, insoluble elastin concentration ([3H]-valine incorporation) (normal skin fibroblasts [2]): improved mature elastin concentrations over untreated control; elastin stained by anti-elastin antibodies ([4]; 50 nM aldosterone alone or with 2 μM spironolactone, vs untreated control or spironolactone only): increase in elastin; elastic fibers / deposition of elastin (Movat's pentachrome) [5]: thicker and longer elastic fibers; elastin stained by anti-elastin antibodies [6]: increase in elastin; concentration of elastin (anti-elastin immunostaining) (normal skin fibroblasts [1]; 7-day cultures, 10 nM, 50 nM, 1 μM aldosterone vs untreated): increased in an aldosterone concentration specific manner; deposition of elastin (anti-elastin immunostaining) (normal skin fibroblasts [1]; 7-day cultures): enhanced deposition of elastin; elastic fibers / deposition of elastin (Movat's pentachrome) [7]: thicker and longer elastic fibers; elastin mRNA (relative to GAPDH mRNA) (elastin mRNA): increases in an aldosterone concentration dependent manner; concentration of mature, insoluble elastin ([3H]-valine incorporation) [8]: increased; collagen type I mRNA (relative to GAPDH mRNA) (collagen type I mRNA): net increase of collagen type I mRNA; deposition of collagen (yellow, Movat's pentachrome) [3, 10]: increases in deposition; deposition of elastin (black, Movat's pentachrome) [3, 10]: increases in deposition; elastic fibers (Movat's pentachrome) ([3]; superficial and deep portion of scar, 10 days, 50 nM aldosterone alone or with 2 μM spironolactone): numerous elastic fibers; deposition of insoluble mature elastin ([3H]-valine incorporation) ([9]; 50 nM aldosterone alone or with 2 μM spironolactone): enhanced

What does the source list for “IGF-I: ligand of insulin growth factor receptor I, added at 10-100 ng/ml”?
mature, insoluble elastin concentration ([3H]-valine incorporation) (normal skin fibroblasts [2]): improved mature elastin concentrations over untreated control; elastin deposition (anti-elastin immunostaining) ([4]; 10 ng/ml IGF-I vs untreated control): increase in elastin depositions; elastin deposition (anti-elastin immunostaining) ([4]; 100 ng/ml IGF-I vs untreated control): even greater elastin deposition; deposition of elastin (anti-elastin immunostaining) (normal skin fibroblasts [1]; 7-day cultures): enhances the deposition of elastin; deposition of mature, insoluble elastin ([3H]-valine incorporation) ([9]; 10 and 100 ng/ml IGF-I vs untreated control): dose dependent increase

Source: patent publication US9492462B2, “Composition for elastin production” (HUMAN MATRIX SCIENCES, LLC, priority 2007, dated 2016)
